What was measured:
[1] = DRUGMATRIX: Glutamate, NMDA, Phencyclidine radioligand binding (ligand: [3H] TCP); format: cell membranes, Rattus norvegicus, Wistar, Cerebral cortex, Membrane; details: Not Active = under 50% inhibition at 10 µM
[2] = target: Beta-3 adrenergic receptor (Homo sapiens, UniProt P13945); assay: DRUGMATRIX: Adrenergic beta3 radioligand binding (ligand: [125I] Cyanopindolol); format: cell membranes, HEK293, Membrane; details: hek293; Not Active = under 50% inhibition at 10 µM
[3] = DRUGMATRIX: Interleukin IL-1 radioligand binding (ligand: [125I] interleukin 1beta); format: cell membranes, Membrane; details: nih3t3; Not Active = under 50% inhibition at 10 µM
Endothelin-1 receptor = target: T1, Endothelin-1 receptor (Homo sapiens, UniProt P25101); format: cell membranes, Membrane; details: cho-k1; note: in other assays of this panel Not Active means under 50% inhibition at 10 µM
T1 sequence (P25101 whole entry): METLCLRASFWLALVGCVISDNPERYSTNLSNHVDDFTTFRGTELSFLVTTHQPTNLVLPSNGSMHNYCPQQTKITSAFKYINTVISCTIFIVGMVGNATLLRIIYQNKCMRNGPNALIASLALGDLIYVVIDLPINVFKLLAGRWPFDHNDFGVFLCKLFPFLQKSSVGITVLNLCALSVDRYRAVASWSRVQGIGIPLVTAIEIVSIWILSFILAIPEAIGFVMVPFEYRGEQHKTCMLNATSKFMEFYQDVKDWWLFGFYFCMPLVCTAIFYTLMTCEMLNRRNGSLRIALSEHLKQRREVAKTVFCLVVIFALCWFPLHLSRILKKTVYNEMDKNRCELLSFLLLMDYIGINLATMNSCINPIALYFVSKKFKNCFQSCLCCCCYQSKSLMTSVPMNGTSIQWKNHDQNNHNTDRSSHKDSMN

[4] = target: Sodium-dependent dopamine transporter (Homo sapiens, UniProt Q01959); assay: DRUGMATRIX: Dopamine Transporter radioligand binding (ligand: [125I] RTI-55); format: cell membranes, CHO-K1, Membrane; details: Not Active = under 50% inhibition at 10 µM
[5] = target: T2, Angiotensin-converting enzyme (Oryctolagus cuniculus, UniProt P12822); assay: biochemical; format: tissue-based, Lung;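 note: enzymatic inhibition of angiotensin-converting enzyme measured with FAPGG as the substrate; in other assays of this panel Not Active means under 50% inhibition at 10 µM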
T2 sequence (P12822 whole entry): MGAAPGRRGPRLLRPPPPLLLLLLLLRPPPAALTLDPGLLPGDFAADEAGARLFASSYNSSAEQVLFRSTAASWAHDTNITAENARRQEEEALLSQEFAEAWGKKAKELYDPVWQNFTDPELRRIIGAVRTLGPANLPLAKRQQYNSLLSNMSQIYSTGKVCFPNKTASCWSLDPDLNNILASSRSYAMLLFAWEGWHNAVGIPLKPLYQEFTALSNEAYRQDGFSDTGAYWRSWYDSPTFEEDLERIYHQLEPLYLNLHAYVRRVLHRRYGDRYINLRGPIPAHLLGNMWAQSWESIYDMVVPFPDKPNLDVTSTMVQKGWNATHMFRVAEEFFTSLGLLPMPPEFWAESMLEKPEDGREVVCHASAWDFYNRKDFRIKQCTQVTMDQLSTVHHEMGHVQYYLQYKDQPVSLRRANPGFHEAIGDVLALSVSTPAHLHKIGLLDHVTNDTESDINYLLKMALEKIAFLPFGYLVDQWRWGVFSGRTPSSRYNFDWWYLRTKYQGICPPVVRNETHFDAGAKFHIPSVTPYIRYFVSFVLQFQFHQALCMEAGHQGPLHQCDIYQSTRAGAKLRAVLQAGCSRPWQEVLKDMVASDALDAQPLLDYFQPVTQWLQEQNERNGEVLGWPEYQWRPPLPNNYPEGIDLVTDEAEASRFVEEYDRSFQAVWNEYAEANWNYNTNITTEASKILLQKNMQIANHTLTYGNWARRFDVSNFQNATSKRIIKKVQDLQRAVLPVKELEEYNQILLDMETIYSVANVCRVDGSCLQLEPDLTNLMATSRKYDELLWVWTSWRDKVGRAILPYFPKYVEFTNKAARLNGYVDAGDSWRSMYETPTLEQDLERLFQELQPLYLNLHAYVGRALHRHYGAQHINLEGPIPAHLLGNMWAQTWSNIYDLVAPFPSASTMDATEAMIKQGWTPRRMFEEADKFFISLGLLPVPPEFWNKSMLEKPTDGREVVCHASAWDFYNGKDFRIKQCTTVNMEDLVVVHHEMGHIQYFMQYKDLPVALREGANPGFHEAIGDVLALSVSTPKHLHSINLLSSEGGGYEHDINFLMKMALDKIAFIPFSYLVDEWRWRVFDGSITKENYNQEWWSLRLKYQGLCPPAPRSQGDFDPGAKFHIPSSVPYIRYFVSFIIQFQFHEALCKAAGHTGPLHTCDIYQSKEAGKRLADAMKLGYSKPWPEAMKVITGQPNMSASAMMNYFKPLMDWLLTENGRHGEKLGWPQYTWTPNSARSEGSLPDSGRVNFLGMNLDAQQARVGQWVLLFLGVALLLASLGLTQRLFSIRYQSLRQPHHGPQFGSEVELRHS

[6] = target: Mitogen-activated protein kinase 1 (Homo sapiens, UniProt P28482); assay: DRUGMATRIX: Protein Serine/Threonine Kinase, ERK2 enzyme inhibition (substrate: Myelin Basic Protein); set-up: species or system Escherichia coli; details: Not Active = under 50% inhibition at 10 µM
[7] = target: T3, Alpha-1B adrenergic receptor (Rattus norvegicus, UniProt P15823); assay: DRUGMATRIX: Alpha-1B adrenergic receptor radioligand binding (ligand: prazosin); format: cell membranes, Wistar, Liver, Membrane; details: Not Active = under 50% inhibition at 10 µM
T3 sequence (P15823 whole entry): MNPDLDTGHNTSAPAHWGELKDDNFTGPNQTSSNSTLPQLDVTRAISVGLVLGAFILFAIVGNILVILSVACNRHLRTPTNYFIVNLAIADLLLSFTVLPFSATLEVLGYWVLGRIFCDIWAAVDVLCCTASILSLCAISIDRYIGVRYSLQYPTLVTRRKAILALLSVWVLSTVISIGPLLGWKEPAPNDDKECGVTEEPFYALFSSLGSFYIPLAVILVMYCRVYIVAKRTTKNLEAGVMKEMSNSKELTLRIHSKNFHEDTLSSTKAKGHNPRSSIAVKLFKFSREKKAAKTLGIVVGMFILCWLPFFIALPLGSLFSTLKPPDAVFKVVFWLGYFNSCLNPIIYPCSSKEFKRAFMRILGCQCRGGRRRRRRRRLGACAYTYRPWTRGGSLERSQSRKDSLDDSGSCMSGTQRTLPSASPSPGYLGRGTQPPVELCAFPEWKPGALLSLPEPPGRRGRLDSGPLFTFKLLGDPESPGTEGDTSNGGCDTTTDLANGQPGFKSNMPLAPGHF

Mitogen-activated protein kinase 1, sequence (P28482 whole entry): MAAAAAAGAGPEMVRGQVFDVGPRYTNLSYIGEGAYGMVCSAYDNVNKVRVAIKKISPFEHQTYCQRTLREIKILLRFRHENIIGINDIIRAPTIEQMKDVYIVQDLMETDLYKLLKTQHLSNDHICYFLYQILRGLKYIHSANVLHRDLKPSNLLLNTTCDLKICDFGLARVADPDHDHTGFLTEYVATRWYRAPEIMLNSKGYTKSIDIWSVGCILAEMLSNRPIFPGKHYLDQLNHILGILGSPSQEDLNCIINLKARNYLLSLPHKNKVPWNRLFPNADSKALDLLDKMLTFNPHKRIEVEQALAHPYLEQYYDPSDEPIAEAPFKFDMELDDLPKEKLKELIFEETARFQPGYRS
Sodium-dependent dopamine transporter, sequence (Q01959 whole entry): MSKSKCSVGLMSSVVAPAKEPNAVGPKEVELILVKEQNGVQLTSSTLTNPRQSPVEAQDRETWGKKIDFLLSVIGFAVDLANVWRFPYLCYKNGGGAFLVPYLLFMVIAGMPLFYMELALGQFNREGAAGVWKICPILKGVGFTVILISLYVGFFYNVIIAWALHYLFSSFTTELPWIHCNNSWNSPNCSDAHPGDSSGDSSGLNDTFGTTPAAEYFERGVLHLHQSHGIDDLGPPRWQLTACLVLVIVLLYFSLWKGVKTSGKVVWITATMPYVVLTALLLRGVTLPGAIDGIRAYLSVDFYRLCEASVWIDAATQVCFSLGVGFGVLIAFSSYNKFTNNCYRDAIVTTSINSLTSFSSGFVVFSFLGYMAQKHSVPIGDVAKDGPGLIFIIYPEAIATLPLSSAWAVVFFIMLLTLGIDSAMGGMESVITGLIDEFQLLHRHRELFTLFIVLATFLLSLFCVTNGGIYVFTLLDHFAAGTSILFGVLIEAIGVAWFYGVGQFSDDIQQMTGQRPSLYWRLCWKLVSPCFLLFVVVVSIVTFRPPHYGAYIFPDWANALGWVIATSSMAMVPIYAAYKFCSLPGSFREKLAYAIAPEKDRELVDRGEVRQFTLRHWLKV
Beta-3 adrenergic receptor, sequence (P13945 whole entry): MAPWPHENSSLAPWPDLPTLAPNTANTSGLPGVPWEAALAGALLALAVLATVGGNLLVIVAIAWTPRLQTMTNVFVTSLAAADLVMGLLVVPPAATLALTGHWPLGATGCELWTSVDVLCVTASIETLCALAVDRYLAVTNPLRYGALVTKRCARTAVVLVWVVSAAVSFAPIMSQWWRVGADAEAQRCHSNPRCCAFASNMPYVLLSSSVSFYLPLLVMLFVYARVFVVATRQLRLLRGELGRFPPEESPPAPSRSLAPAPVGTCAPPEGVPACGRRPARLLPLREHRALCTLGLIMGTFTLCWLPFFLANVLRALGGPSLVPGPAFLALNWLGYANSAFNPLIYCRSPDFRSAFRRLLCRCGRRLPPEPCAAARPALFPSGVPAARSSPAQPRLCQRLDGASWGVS

Nc1nnc(-c2cccc(Cl)c2Cl)c(N)n1 [LAMOTRIGINE]
IC50 [1]: Not Active
Ki [1]: Not Active
IC50 [2]: Not Active
IC50 [3]: Not Active
Ki [3]: Not Active
IC50 (Endothelin-1 receptor): Not Active
IC50 ([4]; cho-k1): Not Active
IC50 [5]: Not Active
IC50 [6]: Not Active
IC50 [7]: Not Active

CCC[C@@H]1C[C@@H](C(=O)N[C@@H]([C@H]2O[C@H](SC)[C@H](O)[C@@H](O)[C@H]2O)[C@@H](C)O)N(C)C1 [LINCOMYCIN]
IC50 [1]: Not Active
Ki [1]: Not Active
IC50 [2]: Not Active
IC50 [3]: Not Active
Ki [3]: Not Active
IC50 (Endothelin-1 receptor): Not Active
IC50 ([4]; cho-k1): Not Active
IC50 [5]: Not Active
IC50 [6]: Not Active
IC50 [7]: Not Active

NCCCC[C@H](N[C@@H](CCc1ccccc1)C(=O)O)C(=O)N1CCC[C@H]1C(=O)O [LISINOPRIL ANHYDROUS]
IC50 [1]: Not Active
Ki [1]: Not Active
IC50 [2]: Not Active
IC50 [3]: Not Active
Ki [3]: Not Active
IC50 (Endothelin-1 receptor): Not Active
IC50 ([4]; cho-k1): Not Active
IC50 ([5]; read-out: IC50): 6.04 nM
IC50 [6]: Not Active
IC50 [7]: Not Active

COS(C)(=O)=O [METHANESULFONIC ACID METHYL ESTER]
IC50 [1]: Not Active
Ki [1]: Not Active
IC50 [2]: Not Active
IC50 [3]: Not Active
Ki [3]: Not Active
IC50 (Endothelin-1 receptor): Not Active
IC50 ([4]; cho-k1): Not Active
IC50 [5]: Not Active
IC50 [6]: Not Active
IC50 [7]: Not Active

COC(=O)c1ccc(O)cc1 [METHYLPARABEN]
IC50 [1]: Not Active
Ki [1]: Not Active
IC50 [2]: Not Active
IC50 [3]: Not Active
Ki [3]: Not Active
IC50 (Endothelin-1 receptor): Not Active
IC50 ([4]; cho-k1): Not Active
IC50 [5]: Not Active
IC50 [6]: Not Active
IC50 [7]: Not Active

C[C@](N)(Cc1ccc(O)cc1)C(=O)O [METYROSINE]
IC50 [1]: Not Active
Ki [1]: Not Active
IC50 [2]: Not Active
IC50 [3]: Not Active
Ki [3]: Not Active
IC50 (Endothelin-1 receptor): Not Active
IC50 ([4]; cho-k1): Not Active
IC50 [5]: Not Active
IC50 [6]: Not Active
IC50 [7]: Not Active

Clc1ccc(C(c2ccccc2Cl)C(Cl)Cl)cc1 (stereo unspecified) [MITOTANE]
IC50 [1]: Not Active
Ki [1]: Not Active
IC50 [2]: Not Active
IC50 [3]: Not Active
Ki [3]: Not Active
IC50 (Endothelin-1 receptor): Not Active
IC50 ([4]; read-out: IC50): 1000 nM
Ki ([4]; read-out: Ki): 795 nM
IC50 [5]: Not Active
IC50 [6]: Not Active
IC50 [7]: Not Active

O=C1c2c(O)ccc(O)c2C(=O)c2c(NCCNCCO)ccc(NCCNCCO)c21 [MITOXANTRONE]
IC50 [1]: Not Active
Ki [1]: Not Active
IC50 [2]: Not Active
IC50 [3]: Not Active
Ki [3]: Not Active
IC50 (Endothelin-1 receptor): Not Active
IC50 ([4]; cho-k1): Not Active
IC50 [5]: Not Active
IC50 [6]: Not Active
IC50 [7]: Not Active

COc1c(C)c2c(c(O)c1C/C=C(\C)CCC(=O)OCCN1CCOCC1)C(=O)OC2 [MYCOPHENOLATE MOFETIL]
IC50 [1]: Not Active
Ki [1]: Not Active
IC50 [2]: Not Active
IC50 [3]: Not Active
Ki [3]: Not Active
IC50 (Endothelin-1 receptor): Not Active
IC50 ([4]; cho-k1): Not Active
IC50 [5]: Not Active
IC50 [6]: Not Active
IC50 [7]: Not Active

COC(=O)C1=C(C)NC(C)=C(C(=O)OC)C1c1ccccc1[N+](=O)[O-] [NIFEDIPINE]
IC50 [1]: Not Active
Ki [1]: Not Active
IC50 [2]: Not Active
IC50 [3]: Not Active
Ki [3]: Not Active
IC50 (Endothelin-1 receptor): Not Active
IC50 ([4]; cho-k1): Not Active
IC50 [5]: Not Active
IC50 [6]: Not Active
IC50 [7]: Not Active

NNc1ccccc1 [PHENYLHYDRAZINE]
IC50 [1]: Not Active
Ki [1]: Not Active
IC50 [2]: Not Active
IC50 [3]: Not Active
Ki [3]: Not Active
IC50 (Endothelin-1 receptor): Not Active
IC50 ([4]; cho-k1): Not Active
IC50 [5]: Not Active
IC50 [6]: Not Active
IC50 [7]: Not Active

CC(=O)[C@H]1CC[C@H]2[C@@H]3CCC4=CC(=O)CC[C@]4(C)[C@H]3CC[C@]12C [PROGESTERONE]
IC50 [1]: Not Active
Ki [1]: Not Active
IC50 [2]: Not Active
IC50 [3]: Not Active
Ki [3]: Not Active
IC50 (Endothelin-1 receptor): Not Active
IC50 ([4]; cho-k1): Not Active
IC50 [5]: Not Active
IC50 [6]: Not Active
IC50 [7]: Not Active

NC(=O)c1ncn([C@@H]2O[C@H](CO)[C@@H](O)[C@H]2O)n1 [RIBAVIRIN]
IC50 [1]: Not Active
Ki [1]: Not Active
IC50 [2]: Not Active
IC50 [3]: Not Active
Ki [3]: Not Active
IC50 (Endothelin-1 receptor): Not Active
IC50 ([4]; cho-k1): Not Active
IC50 [5]: Not Active
IC50 [6]: Not Active
IC50 [7]: Not Active

— ChEMBL document CHEMBL1909046, “DrugMatrix in vitro pharmacology data”
